The values that follow come from patent EP0511152A2, “Quinoxaline compounds, their preparation and use” (NOVO NORDISK A/S, priority 1991, dated 1992).

The target of one assay is AMPA type receptors. The assay is described as follows: ³H-AMPA binding (Test 1). Conditions: displacement of 50% of specific binding of ³H-AMPA (5 nM); rat cerebral cortical membrane homogenate, 0°C, 30 min. As for the experimental part:
(§1) The pharmacological properties of the compounds of the present invention can be illustrated by determining their capability for displacing radioactively labelled 2-amino3-hydroxy-5-methyl-4-isoxazolepropionic acid (AMPA) from the AMPA type receptors.
The displacement activity of the compounds may be shown by determining the IC₅₀ value which represents the concentration (µg/ml) which causes a displacement of 50% of the specific binding of ³H-AMPA.
500 µl of thawed rat cerebral cortical membrane homogenate in Tris-HCl (30 mM), CaCl₂ (2.5 mM) and KSCN (1OO mM) pH 7.1 were incubated at 0°C for 30 min. with 25 µl ³H-AMPA (5 nM final concentration) and the test compound and buffer. Nonspecific binding was determined by incubation with L-glutamic acid (600 µM final concentration). The binding reaction was terminated by adding 5 ml of ice-cold buffer followed by filtration through Whatman GF/C glass fibre filters and 2x5 ml wash with ice-cold buffer. Bound radioactivity was measured by scintillation counting. IC₅₀ was determined by Hill analysis of at least four concentrations of test compound.

Assay [1] relates to quisqualic acid stimulated spreading depression in chicken retina. The assay is described as follows: Spreading depression (Test 2). It counts as cell-based. Conditions: Gallus gallus; concentration producing 50% maximal inhibition of quisqualic acid stimulated spreading depression; chick retina, quisqualate 1 µg/ml, 26°C. As for the experimental part: as §1
The antagonism is measured by determining the IC₅₀ value which represents the concentration which produces a 50% maximal inhibition of quisqualic acid stimulated spreading depression in chicken retina.
Spreading depression (Test 2)
Chicks (3-10 days old) were decapitated, the eyes enucleated and sectioned along the equatorial plane. After removal of the anterior chamber and the vitreous body, the posterior chamber of each eye was placed in a small petri dish containing a physiological saline solution (P.S.S.) of the following composition (mM) NaCl (100), KCl (6.0), CaCl₂ (1.0), MgS0₄ (1.0), NaHCO₃ (30), NaH₂PO₄ (1.0), glucose (20).
The solution was saturated with 100% O₂ and maintained at 26°C.
The eyes are initially incubated in normal P.S.S. for 15-30 min. and then transferred to P.S.S. containing KCl (20 mM), NMDLA (30 µg/ml), quisqualate (1 µg/ml), kainate (1 µg/ml), or glycin (200 µg/ml). In these "stimulating solutions" S.D.s start spontaneously usually from the edge of the retina, and can be easily observed by eye. The time taken for an S.D. to start in each eye is measured.
After a further 15 minutes of incubation in normal P.S.S. the eyes are transferred to normal P.S.S. containing the test compound and incubated for 15 minutes. Thereafter the eyes are transferred to a "stimulating solution" containing the same concentration of the test compound. The time taken for an S.D. to start in each eye is again measured. The eyes are then placed back in normal P.S.S. and after 15 minutes the time taken for S.D. to start is again measured, in order to assess the degree of recovery from any drug effects.
An increase in the time taken for S.D. to start of 30 seconds more than the control time is considered 100% inhibition of S.D. The drug effects therefore are expressed as the percentage maximum response obtained for a given dose. The test value can be quoted therefore as the concentration (µg/ml) of test substance which produces a 50% maximal inhibition (IC₅₀).

Values after ≈ are worked out from the molar mass of the structure shown.

A word on the IC50: it is the midpoint of a concentration-inhibition curve. High values mean weaker potency in that assay, low ones greater potency in that assay. As for `O=c1[nH]c2cc([N+](=O)[O-])c3c(C(F)(F)F)cccc3c2[nH]c1=O` [Example 8, 6-Nitro-7-trifluoromethylbenzo[f]quinoxaline-2,3-(1H,4H)-dione], the “Test 1 IC50” value at AMPA type receptors is 0.55 µg/mL. In assay [1], this compound displayed an IC50 of 1.3 µg/mL (≈ 4 µM).

Regarding `N#Cc1cc2[nH]c(=O)c(=O)[nH]c2c2ccc(S(N)(=O)=O)cc12` [Example 11, 6-Cyano-8-sulfamoylbenzo[f]quinoxaline-2,3(1H,4H)-dione], the “Test 1 IC50” value at AMPA type receptors stood at 0.17 µg/mL. Further, in assay [1], the IC50 turned out to be 0.54 µg/mL (≈ 1.71 µM).

In the case of `NC(=O)c1ccc2c(c1)c([N+](=O)[O-])cc1[nH]c(=O)c(=O)[nH]c12` [Example 14, 8-Carbamoyl-6-nitrobenzo[f]quinoxaline-2,3(1H,4H)-dione], the “Test 1 IC50” value at AMPA type receptors was 0.07 µg/mL. For the same compound, in assay [1], the half-inhibitory concentration (IC50) was 0.41 µg/mL (≈ 1.37 µM).

On to `NC(=O)CNS(=O)(=O)c1ccc2c(c1)c([N+](=O)[O-])cc1[nH]c(=O)c(=O)[nH]c12` [Example 21, 8-Carbamoylmethylsulfamoyl-6-nitrobenzo[f]quinoxaline-2,3(1H,4H)-dione], for which the “Test 1 IC50” value on AMPA type receptors turned out to be 0.16 µg/mL. This compound also returned an IC50 in assay [1] of 1 µg/mL (≈ 2.54 µM).
